# Measurements published in patent US20210171577A1, “COMBINATORIAL ANTIBIOTIC DERIVATIVES BASED ON SUPRAMOLECULAR STRUCTURES” (priority 2017, published 2021).
# Several values for one entry are separate records, joined by “and”; a condition that tells them apart may be missing. Equal values may be shown once. Marks after values point to notes of the source that are not given here.
# What was measured:
# [1] = system: Escherichia coli IMI2001; assay: Model of hip (femoral) infection with neutropenia in mice (Example 7); format: in vivo, NMRI mice
# Description: Introduction The objective of this study was to study the dose response after intravenous (iv) administration of a single dose of CPR in the range of 0.1612 mg/kg. The effect was investigated against E. coli IMI2001 in a model of femoral infection with neutropenia. Administration of meropenem at a dose of 40 mg/kg was included as a positive control group. The number of colonies in the hips was determined 5 hours after administration. The hip infection model is a well-known model for studies of the antimicrobial effect and tissue penetration, as described by S. Gudmundsson & N. Erlensdottir: Handbook of Animal Models of Infection (1999), ed. by O. Zak & M. A. Sande, Academic Press, San Diego, US, and some other publications. See the review by D. Andes & C. Craig: Animal model pharmacokinetics and pharmacodynamics: a critical review. International Journal of Antimicrobial Agents, 19 (4): 261268.
# Materials and methods. 40 female outbred mice NMRI, 2530 grams (Kiev, Ukraine). Escherichia coli IMI2001 from IMINAMN, Kharkov, Ukraine. Clinical isolate from a human wound from […] with multidrug resistance (to ampicillin, ceftazidime, aztreonam, gentamicin, ciprofloxacin).
# PPC in Ringer's acetate, pH 6, 1.2 mg/ml, 6.0 ml. The solution was stored at 4° C. until use. The analyzes of the compositions used for administration were performed at the end of the phase of the study conducted on live animals, and the following results were obtained in these analyzes.
# (§1) The introduction of cyclophosphamide to mice. Neutropenia was induced in mice by injection of 0.5 ml of cyclophosphamide solution intraperitoneally 4 days (200 mg/kg) and 1 day (100 mg/kg) before infection.
# Infection of mice. […]
# The number of colonies was determined in the hips at 0 and 5 h. […]
# Results. The number of colonies was determined at the beginning of administration and 5 hours after administration. […] CFU/ml in the infectious material was determined to be 7.35 log 10, which corresponds to […]. […]
# [2] = system: Escherichia coli IMI2001; assay: Peritonitis/sepsis model in neutropenic NMRI mice, effect over time at 7.5 mg/kg (Example 6); format: in vivo
# Description: The objective of this study was to investigate the effectiveness of CPR in vivo after intravenous (iv) administration of a single dose of 7.5 mg/kg. The effect was tested against Escherichia coli IMI2001 in a peritonitis model in neutropenia NMRI mice to avoid the use of mucin, which is commonly used in a mouse peritonitis model. Neutropenia was induced in mice by injection of cyclophosphamide. Administration of meropenem at a dose of 40 mg/kg was included as a positive control group and vehicle administration was included as a negative control group. The number of colonies in peritoneal fluid and blood was determined 2 and 5 hours after administration.
# 30 female outbred mice NMRI, 2832 grams (Kiev).
# Escherichia coli IMI2001 from IMINAMN, Ukraine, Kharkov. Clinical isolate from a human wound from 2013 with multidrug resistance (to ampicillin, ceftazidime, aztreonam, gentamicin, ciprofloxacin).
# PPC in Ringer's acetate, pH 6, 1.2 ml, 0.75 mg/ml.
# as §1
# (§2) Infection of mice. Fresh E. coli AID #172 colonies obtained overnight in an agar plate and 5% horse blood were suspended and diluted in sterile saline to approximately 2×10^6 CFU/ml. One hour before the start of administration (time point 1 h), mice were intraperitoneally infected with 0.5 ml of a suspension of E. coli in the lateral lower quadrant of the abdomen. 2.5 h after administration with significant clinical signs of infection, mice were orally administered 45 μl of neurofen (20 mg ibuprofen per ml, which corresponded to 30 mg/kg) as a painkiller.
# Score mice. At each sampling in mice, a clinical assessment of the clinical signs of infection was performed.
# The introduction of drugs to mice. The mice were given a single intravenous administration of CPR, meropenem, or excipient into the lateral tail vein for approximately 30 seconds at a time point of 0 h (see Table 6). The dose determination was based on an average body weight of 30 g. Mice with a body weight of 2832 g were injected with 0.30 ml of solution. Mice weighing 2728 g were injected with 0.25 ml of the solution and mice weighing 32.136 g were injected with 0.35 ml of the solution. Mice 17 accidentally injected 0.35 ml, despite the fact that its body weight was 29.5 g.
# Fence samples. The number of colonies was determined in blood and peritoneal fluid at 0, 2 and 5 hours after administration according to Table 6.
# Mice were anesthetized with CO2+O2 and blood sampling was performed from a section in the axillary region. The mice were sacrificed by cervical dislocation and a total of 2 ml of sterile physiological saline was injected intraperitoneally and a gentle massage of the abdomen was performed, then it was opened and a sample of the fluid was pipetted. Each sample was diluted 10 times in saline and drops of 20 μl were applied to plates with blood agar. All agar plates were incubated for 1822 hours at 35° C. in air.
# [3] = system: Escherichia coli IMI2001; assay: Neutropenic peritonitis/sepsis model in mice, dose response (Example 5); format: in vivo, NMRI mice
# Description: The objective of this study was to study the dose response relationship after intravenous (iv) administration of a single dose of SKPA (CBT) in the range of 0.1612 mg/kg. The effect was investigated against resistant E. coli IMI2001 in a neutropenic peritonitis model. Administration of meropenem at a dose of 40 mg/kg was included as a positive control group. The number of colonies in the blood and peritoneal fluid was determined 5 hours after administration. The mouse peritonitis/sepsis model is a well-known model for antimicrobial activity studies as described by N. FrimodtMoller and J. D.
# 30 female outbred NMRI mice, 2530 grams (Harlan Scandinavia).
# Escherichia coli IMI2001 from IMINAMN, Kharkov, Ukraine. Clinical isolate from a human wound from 2003 with multidrug resistance (to ampicillin, ceftazidime, aztreonam, gentamicin, ciprofloxacin).
# ASCA in Ringer's acetate, pH 6, 1.2 mg/ml, 6.0 ml. The solution was stored at 4° C. until use. The analyzes of the compositions used for administration were performed at the end of the phase of the study conducted on live animals, and the following results were obtained in these analyzes.
# as §1
# as §2, with “IMI2001” for “AID #172”, “Approximately 0.51 hours” for “2.5 h”, “the administration,” for “administration with significant clinical signs of infection, mice were orally administered”, “corresponding” for “which corresponded”, “mg/kg) was orally administered to the mice” for “mg/kg)”
# The introduction of drugs to mice. Mice were given a single intravenous administration of CBT, meropenem, or excipient into the lateral tail vein for approximately 30 seconds in a volume of 10 ml/kg at time 0 h (see Table 1). The dose determination was based on an average body weight of 30 g. Mice with a body weight of 2832 g were injected with 0.30 ml of solution. Mice weighing 2728 g were injected with 0.25 ml of the solution and mice weighing 32.136 g were injected with 0.35 ml of the solution.
# T indicates time relative to administration. The numbers in the columns of the sampling represent the identification numbers of mice. Clinical scoring of mice. Mice were observed during the study and assigned them scores from 0 to 5 depending on their behavior and clinical signs.
# The number of colonies was determined in blood and peritoneal fluid for 0 and 5 hours. Mice were anesthetized with CO2+O2 and blood was taken from an axillary incision into Eppendorf tubes coated with ethylene diamine tetraacetic acid (EDTA). Mice were sacrificed immediately after blood sampling, and a total of 2 ml of sterile physiological saline was administered intraperitoneally and a gentle massage of the abdomen was performed until it was opened and the fluid samples were pipetted. Then, each sample was diluted 10 times in physiological saline and drops of 20 μl were applied to blue agar plates. All agar plates were incubated for 1822 hours at 35° C. in air.
# Results. The number of colonies was determined at the beginning of administration and 5 hours after administration. Before the calculations, a log 10 transformation of the CFU count was performed.
# Dose response curves (data not shown) were calculated in GraphPad Prism using a sigmoid dose response curve (variable angle). […] The maximum effect of CBT, Emax, was determined as the difference in log CFU in the absence of response and at the maximum response. The lack of response was characterized as the number of colonies at a level determined in mice that were injected with vehicle. […]
# [4] = system: multiresistant strains of microorganisms and fungi; assay: Antimicrobial activity in vitro, collection of multiresistant test strains (summary statements); format: cell-based; conditions: resistant fungal strains
# [5] = Meropenem 40 mg/kg single iv, 2 h
# [6] = Meropenem 40 mg/kg single iv, 5 h
# [7] = Meropenem 40 mg/kg single iv, T = 2 h, individual mice
# [8] = Meropenem 40 mg/kg single iv, T = 5 h, individual mice
# [9] = Meropenem 40 mg/kg single iv, T = 5 h, p < 0.01 vs filler
# [10] = Meropenem 40 mg/kg single iv, individual mice, score 0-5
smiles,measurement,setting,value
"C[C@@H](O)[C@H]1C(=O)N2C(C(=O)O)=C(S[C@@H]3CN[C@H](C(=O)N(C)C)C3)[C@H](C)[C@H]12 [Meropenem, meropenem]","log10 CFU, hip, The average","[1]; Meropenem 40 mg/kg single iv, T = 5 h",4.25 log10 CFU
same,"log10 CFU, hip","[1]; Meropenem 40 mg/kg single iv, T = 5 h, individual mice, smallest value of group excluded from average",4.99 log10 CFU and 3.94 log10 CFU
same,"CFU compared with vehicle, hip","[1]; meropenem 40 mg/kg iv, 5 h",definite but insignificant decrease
same,"Difference in CFU level compared with filler, blood",[2]; [5],blood −0.82 log CFU/ml
same,"Difference in CFU level compared with filler, peritoneum",[2]; [5],2 h: peritoneum −1.51 log CFU/ml
same,"Difference in CFU level compared with filler, blood",[2]; [6],blood −1.64 log CFU/ml
same,"Difference in CFU level compared with filler, peritoneum",[2]; [6],5 h: peritoneum −1.51 log CFU/ml
same,log10 CFU Blood (group average),"[2]; Meropenem 40 mg/kg single iv, T = 2 h",3.76 log10 CFU
same,log10 CFU Blood,[2]; [7],3.60 log10 CFU and 3.57 log10 CFU and 4.11 log10 CFU
same,log10 CFU PF,[2]; [7],4.12 log10 CFU and 3.40 log10 CFU and 4.24 log10 CFU
same,log10 CFU PF (group average),"[2]; Meropenem 40 mg/kg single iv, T = 2 h, p < 0.01 vs filler",3.92 ** log10 CFU
same,log10 CFU Blood,[2]; [8],3.20 log10 CFU and 2.85 log10 CFU and 3.26 log10 CFU
same,log10 CFU PF,[2]; [8],4.38 log10 CFU and 4.00 log10 CFU and 4.26 log10 CFU
same,log10 CFU Blood (group average),[2]; [9],3.10** log10 CFU
same,log10 CFU PF (group average),[2]; [9],4.21 ** log10 CFU
same,Score T = 2 h,[2]; [10],1
same,Score T = 5 h,[2]; [10],0
same,significant decrease of CFU compared with filler group,"[2]; meropenem 40 mg/kg, 2 hours after administration",only in the peritoneal fluid
same,"CFU compared with filler group, blood and peritoneal fluid","[2]; meropenem 40 mg/kg, after 5 hours, p<0.01",significant decrease
same,log10 CFU Blood,[3]; [8],2.48 log10 CFU and 1.70 log10 CFU and 2.95 log10 CFU
same,log10 CFU PF,[3]; [8],3.92 log10 CFU and 1.70 log10 CFU and 2.30 log10 CFU
same,log10 CFU Average in PF,[3]; [9],2.64 log10 CFU
same,log10 CFU Blood average,"[3]; Meropenem 40 mg/kg single iv, T = 5 h, p < 0.05 vs filler",2.38 log10 CFU
same,Clinical Score T = 5 h,[3]; [10],1 (2×) and 0
same,"CFU compared with excipient, blood (p<0.05) and peritoneal fluid (p<0.01)","[3]; meropenem 40 mg/kg iv, 5 h",significant decrease
C[C@@H]1[C@H](O)[C@@H](C)/C=C/C=C/C=C/C=C/C=C/C=C/C=C/[C@H](O[C@@H]2O[C@H](C)[C@@H](O)[C@H](N)[C@@H]2O)C[C@@H]2O[C@](O)(C[C@@H](O)C[C@@H](O)[C@H](O)CC[C@@H](O)C[C@@H](O)CC(=O)O[C@H]1C)C[C@H](O)[C@H]2C(=O)O [amphotericin],antifungal activity,[4],did not exert antifungal activity
C[C@@H]1[C@H](O)[C@@H](C)/C=C/C=C/CC/C=C/C=C/C=C/C=C/C(O[C@H]2O[C@H](C)[C@@H](O)[C@H](N)[C@@H]2O)CC2O[C@](O)(CC(O)C(O)CCC(O)CC(O)CC(O)CC(=O)O[C@H]1C)CC(O)C2C(=O)O (stereo partly drawn) [nystatin],antifungal activity,[4],did not exert antifungal activity
